Measurements: article PMC8909834, “An Orally Bioavailable and Highly Efficacious Inhibitor of CDK9/FLT3 for the Treatment of Acute Myeloid Leukemia” (Cancers, 2022)

Tests used:
Experiment in all cases: Kinase Hotspot radiolabel assay
Assay type in all cases: biochemical
Conditions in all cases: read-out: % Residual Activity
ZAK/MLTK = target: T1, ZAK/MLTK (Homo sapiens, UniProt Q9NYL2)
T1 construct: purchased Reaction Biology Corporation (Kinase HotSpot)
Procedure, shortened: (§1)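 Percent inhibition is from a radiometric Hotspot assay at 1 µM compound. The panel spans 369 kinases, and Ki measurement follows for those inhibited over 90%.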

VRK2 = target: T2, VRK2 (Homo sapiens, UniProt Q86Y07)
T2 construct: purchased Reaction Biology Corporation (Kinase HotSpot)
Procedure, shortened: as §1

TBK1 = target: T3, TBK1 (Homo sapiens, UniProt Q9UHD2)
T3 construct: purchased Reaction Biology Corporation (Kinase HotSpot)
Procedure, shortened: as §1

PLK3 = target: T4, PLK3 (Homo sapiens, UniProt Q9H4B4)
T4 construct: purchased Reaction Biology Corporation (Kinase HotSpot)
Procedure, shortened: as §1

CDK9/cyclin T1 = target: T5, CDK9/cyclin T1 (Homo sapiens, UniProt P50750)
T5 construct: purchased Reaction Biology Corporation (Kinase HotSpot)
Procedure, shortened: as §1

PDK1/PDPK1 = target: T6, PDK1/PDPK1 (Homo sapiens, UniProt O15530)
T6 construct: purchased Reaction Biology Corporation (Kinase HotSpot)
Procedure, shortened: as §1

TRKB = target: T7, TRKB (Homo sapiens, UniProt Q16620)
T7 construct: purchased Reaction Biology Corporation (Kinase HotSpot)
Procedure, shortened: as §1

TGFBR2 = target: T8, TGFBR2 (Homo sapiens, UniProt P37173)
T8 construct: purchased Reaction Biology Corporation (Kinase HotSpot)
Procedure, shortened: as §1

PAK2 = target: T9, PAK2 (Homo sapiens, UniProt Q13177)
T9 construct: purchased Reaction Biology Corporation (Kinase HotSpot)
Procedure, shortened: as §1

NEK7 = target: T10, NEK7 (Homo sapiens, UniProt Q8TDX7)
T10 construct: purchased Reaction Biology Corporation (Kinase HotSpot)
Procedure, shortened: as §1

NEK6 = target: T11, NEK6 (Homo sapiens, UniProt Q9HC98)
T11 construct: purchased Reaction Biology Corporation (Kinase HotSpot)
Procedure, shortened: as §1

CLK2 = target: T12, CLK2 (Homo sapiens, UniProt P49760)
T12 construct: purchased Reaction Biology Corporation (Kinase HotSpot)
Procedure, shortened: as §1

TAOK3/JIK = target: T13, TAOK3/JIK (Homo sapiens, UniProt Q9H2K8)
T13 construct: purchased Reaction Biology Corporation (Kinase HotSpot)
Procedure, shortened: as §1

OSR1/OXSR1 = target: T14, OSR1/OXSR1 (Homo sapiens, UniProt O95747)
T14 construct: purchased Reaction Biology Corporation (Kinase HotSpot)
Procedure, shortened: as §1

PKAcg = target: T15, PKAcg (Homo sapiens, UniProt P22612)
T15 construct: purchased Reaction Biology Corporation (Kinase HotSpot)
Procedure, shortened: as §1

DYRK2 = target: T16, DYRK2 (Homo sapiens, UniProt Q92630)
T16 construct: purchased Reaction Biology Corporation (Kinase HotSpot)
Procedure, shortened: as §1

MSK1/RPS6KA5 = target: T17, MSK1/RPS6KA5 (Homo sapiens, UniProt O75582)
T17 construct: purchased Reaction Biology Corporation (Kinase HotSpot)
Procedure, shortened: as §1

MAK = target: T18, MAK (Homo sapiens, UniProt P20794)
T18 construct: purchased Reaction Biology Corporation (Kinase HotSpot)
Procedure, shortened: as §1

PAK4 = target: T19, PAK4 (Homo sapiens, UniProt O96013)
T19 construct: purchased Reaction Biology Corporation (Kinase HotSpot)
Procedure, shortened: as §1

MAPKAPK3 = target: T20, MAPKAPK3 (Homo sapiens, UniProt Q16644)
T20 construct: purchased Reaction Biology Corporation (Kinase HotSpot)
Procedure, shortened: as §1

PKN3/PRK3 = target: T21, PKN3/PRK3 (Homo sapiens, UniProt Q6P5Z2)
T21 construct: purchased Reaction Biology Corporation (Kinase HotSpot)
Procedure, shortened: as §1

YES/YES1 = target: T22, YES/YES1 (Homo sapiens, UniProt P07947)
T22 construct: purchased Reaction Biology Corporation (Kinase HotSpot)
Procedure, shortened: as §1

ABL2/ARG = target: T23, ABL2/ARG (Homo sapiens, UniProt P42684)
T23 construct: purchased Reaction Biology Corporation (Kinase HotSpot)
Procedure, shortened: as §1

ERK2/MAPK1 = target: T24, ERK2/MAPK1 (Homo sapiens, UniProt P28482)
T24 construct: purchased Reaction Biology Corporation (Kinase HotSpot)
Procedure, shortened: as §1

LKB1 = target: T25, LKB1 (Homo sapiens, UniProt Q15831)
T25 construct: purchased Reaction Biology Corporation (Kinase HotSpot)
Procedure, shortened: as §1

CHK2 = target: T26, CHK2 (Homo sapiens, UniProt O96017)
T26 construct: purchased Reaction Biology Corporation (Kinase HotSpot)
Procedure, shortened: as §1

c-MER = target: T27, c-MER (Homo sapiens, UniProt Q12866)
T27 construct: purchased Reaction Biology Corporation (Kinase HotSpot)
Procedure, shortened: as §1

FGR = target: T28, FGR (Homo sapiens, UniProt P09769)
T28 construct: purchased Reaction Biology Corporation (Kinase HotSpot)
Procedure, shortened: as §1

CDC7/DBF4 = target: T29, CDC7/DBF4 (Homo sapiens, UniProt O00311)
T29 construct: purchased Reaction Biology Corporation (Kinase HotSpot)
Procedure, shortened: as §1

SGK1 = target: T30, SGK1 (Homo sapiens, UniProt O00141)
T30 construct: purchased Reaction Biology Corporation (Kinase HotSpot)
Procedure, shortened: as §1

T26 sequence (O96017 whole entry): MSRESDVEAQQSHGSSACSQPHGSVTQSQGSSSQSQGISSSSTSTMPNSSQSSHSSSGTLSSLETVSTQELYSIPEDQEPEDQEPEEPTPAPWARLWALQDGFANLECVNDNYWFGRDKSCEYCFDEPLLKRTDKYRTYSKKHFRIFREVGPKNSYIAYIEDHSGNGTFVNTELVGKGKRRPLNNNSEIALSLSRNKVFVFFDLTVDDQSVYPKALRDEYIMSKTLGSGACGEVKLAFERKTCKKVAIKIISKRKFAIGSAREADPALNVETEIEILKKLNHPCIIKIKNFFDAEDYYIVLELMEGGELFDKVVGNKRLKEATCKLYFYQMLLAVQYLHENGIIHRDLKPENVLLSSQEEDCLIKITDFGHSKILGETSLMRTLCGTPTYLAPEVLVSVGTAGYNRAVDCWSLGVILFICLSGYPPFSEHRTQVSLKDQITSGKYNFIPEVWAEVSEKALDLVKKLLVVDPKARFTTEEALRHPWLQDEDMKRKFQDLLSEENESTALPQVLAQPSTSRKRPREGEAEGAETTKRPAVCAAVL
T12 sequence (P49760 whole entry): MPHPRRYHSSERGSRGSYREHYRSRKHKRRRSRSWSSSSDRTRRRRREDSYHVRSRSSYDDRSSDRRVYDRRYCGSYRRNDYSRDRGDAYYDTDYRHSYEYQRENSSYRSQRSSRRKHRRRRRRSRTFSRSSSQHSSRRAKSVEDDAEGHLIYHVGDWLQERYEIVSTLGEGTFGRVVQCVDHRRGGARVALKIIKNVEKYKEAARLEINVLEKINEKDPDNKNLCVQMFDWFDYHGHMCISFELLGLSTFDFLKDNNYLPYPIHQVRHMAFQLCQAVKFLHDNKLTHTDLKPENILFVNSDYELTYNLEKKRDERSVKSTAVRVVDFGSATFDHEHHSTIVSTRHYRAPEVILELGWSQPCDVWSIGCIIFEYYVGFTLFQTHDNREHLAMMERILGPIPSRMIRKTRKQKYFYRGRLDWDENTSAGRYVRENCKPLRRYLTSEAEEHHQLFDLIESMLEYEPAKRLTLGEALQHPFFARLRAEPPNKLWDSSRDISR
T6 sequence (O15530 whole entry): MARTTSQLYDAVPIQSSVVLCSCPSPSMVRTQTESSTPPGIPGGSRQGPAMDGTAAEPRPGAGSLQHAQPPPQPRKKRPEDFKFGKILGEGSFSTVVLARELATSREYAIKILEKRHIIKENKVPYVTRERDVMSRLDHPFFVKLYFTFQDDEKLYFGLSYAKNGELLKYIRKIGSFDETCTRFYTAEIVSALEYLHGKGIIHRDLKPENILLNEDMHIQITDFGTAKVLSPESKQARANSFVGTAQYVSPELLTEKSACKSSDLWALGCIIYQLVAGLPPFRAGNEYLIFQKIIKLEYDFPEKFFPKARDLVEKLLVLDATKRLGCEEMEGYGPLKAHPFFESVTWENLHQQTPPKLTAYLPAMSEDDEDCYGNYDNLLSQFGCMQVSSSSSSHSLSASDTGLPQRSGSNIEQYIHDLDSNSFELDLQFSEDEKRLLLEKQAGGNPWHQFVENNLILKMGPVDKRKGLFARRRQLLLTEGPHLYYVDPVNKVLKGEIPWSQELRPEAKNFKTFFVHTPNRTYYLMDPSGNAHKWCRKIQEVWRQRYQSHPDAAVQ
T14 sequence (O95747 whole entry): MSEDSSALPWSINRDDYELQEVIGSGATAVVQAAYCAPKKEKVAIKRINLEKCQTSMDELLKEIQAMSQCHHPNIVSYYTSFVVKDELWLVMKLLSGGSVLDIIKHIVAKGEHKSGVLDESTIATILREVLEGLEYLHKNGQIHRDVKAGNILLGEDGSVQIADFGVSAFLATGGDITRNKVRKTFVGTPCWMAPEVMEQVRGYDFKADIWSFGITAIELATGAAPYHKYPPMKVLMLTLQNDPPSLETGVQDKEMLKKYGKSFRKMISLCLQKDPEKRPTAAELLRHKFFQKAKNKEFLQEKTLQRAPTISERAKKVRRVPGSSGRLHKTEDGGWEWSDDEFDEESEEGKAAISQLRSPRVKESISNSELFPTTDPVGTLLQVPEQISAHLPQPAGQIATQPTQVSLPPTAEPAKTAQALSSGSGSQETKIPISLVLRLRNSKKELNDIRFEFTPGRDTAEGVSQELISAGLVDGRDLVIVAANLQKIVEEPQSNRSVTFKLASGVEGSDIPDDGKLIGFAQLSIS
T24 sequence (P28482 whole entry): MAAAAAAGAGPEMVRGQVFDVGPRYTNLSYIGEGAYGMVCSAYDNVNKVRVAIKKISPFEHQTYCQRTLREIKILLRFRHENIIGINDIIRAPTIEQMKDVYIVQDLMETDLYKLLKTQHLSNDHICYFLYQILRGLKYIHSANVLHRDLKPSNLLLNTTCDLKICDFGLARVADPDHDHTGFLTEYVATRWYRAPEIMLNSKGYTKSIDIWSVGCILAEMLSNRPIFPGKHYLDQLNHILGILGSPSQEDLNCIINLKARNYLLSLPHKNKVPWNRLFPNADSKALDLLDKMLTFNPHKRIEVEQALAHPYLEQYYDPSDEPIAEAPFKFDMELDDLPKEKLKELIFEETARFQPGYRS
T17 sequence (O75582 whole entry): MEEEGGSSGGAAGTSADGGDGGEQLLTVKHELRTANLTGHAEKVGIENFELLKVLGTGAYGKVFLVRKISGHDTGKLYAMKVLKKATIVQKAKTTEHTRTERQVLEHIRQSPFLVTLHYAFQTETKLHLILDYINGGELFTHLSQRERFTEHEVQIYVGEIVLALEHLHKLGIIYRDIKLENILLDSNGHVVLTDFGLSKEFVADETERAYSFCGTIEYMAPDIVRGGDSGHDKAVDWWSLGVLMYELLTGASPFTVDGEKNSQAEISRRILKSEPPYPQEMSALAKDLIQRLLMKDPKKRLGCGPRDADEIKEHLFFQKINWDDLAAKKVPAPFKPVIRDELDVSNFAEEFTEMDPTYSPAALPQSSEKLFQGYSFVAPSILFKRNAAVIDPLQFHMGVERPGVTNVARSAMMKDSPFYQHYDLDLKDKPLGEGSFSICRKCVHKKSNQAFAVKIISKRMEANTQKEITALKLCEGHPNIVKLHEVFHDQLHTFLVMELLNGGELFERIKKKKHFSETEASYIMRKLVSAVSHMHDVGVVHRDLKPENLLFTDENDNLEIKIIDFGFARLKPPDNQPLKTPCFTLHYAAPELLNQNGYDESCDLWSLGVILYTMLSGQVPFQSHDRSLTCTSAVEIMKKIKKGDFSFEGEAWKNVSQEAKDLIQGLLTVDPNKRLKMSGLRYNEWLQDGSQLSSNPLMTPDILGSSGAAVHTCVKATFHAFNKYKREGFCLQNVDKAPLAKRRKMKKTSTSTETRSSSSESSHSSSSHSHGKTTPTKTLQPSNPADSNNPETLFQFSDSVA
T19 sequence (O96013 whole entry): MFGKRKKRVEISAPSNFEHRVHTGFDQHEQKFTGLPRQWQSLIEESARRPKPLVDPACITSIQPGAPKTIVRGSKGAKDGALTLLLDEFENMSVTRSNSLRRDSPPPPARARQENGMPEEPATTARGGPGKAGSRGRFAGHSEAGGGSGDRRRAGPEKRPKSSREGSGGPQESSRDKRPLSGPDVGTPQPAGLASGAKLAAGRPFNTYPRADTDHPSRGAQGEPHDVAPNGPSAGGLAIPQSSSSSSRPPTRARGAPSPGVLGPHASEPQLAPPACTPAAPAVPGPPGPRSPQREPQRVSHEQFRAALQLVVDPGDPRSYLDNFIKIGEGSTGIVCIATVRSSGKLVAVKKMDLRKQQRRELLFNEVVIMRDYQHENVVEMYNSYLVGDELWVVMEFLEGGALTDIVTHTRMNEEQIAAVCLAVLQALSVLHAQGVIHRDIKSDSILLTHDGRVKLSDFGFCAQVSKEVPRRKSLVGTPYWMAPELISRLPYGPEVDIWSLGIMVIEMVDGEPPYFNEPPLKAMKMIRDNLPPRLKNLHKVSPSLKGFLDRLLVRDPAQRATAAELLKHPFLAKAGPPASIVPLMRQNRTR
T4 sequence (Q9H4B4 whole entry): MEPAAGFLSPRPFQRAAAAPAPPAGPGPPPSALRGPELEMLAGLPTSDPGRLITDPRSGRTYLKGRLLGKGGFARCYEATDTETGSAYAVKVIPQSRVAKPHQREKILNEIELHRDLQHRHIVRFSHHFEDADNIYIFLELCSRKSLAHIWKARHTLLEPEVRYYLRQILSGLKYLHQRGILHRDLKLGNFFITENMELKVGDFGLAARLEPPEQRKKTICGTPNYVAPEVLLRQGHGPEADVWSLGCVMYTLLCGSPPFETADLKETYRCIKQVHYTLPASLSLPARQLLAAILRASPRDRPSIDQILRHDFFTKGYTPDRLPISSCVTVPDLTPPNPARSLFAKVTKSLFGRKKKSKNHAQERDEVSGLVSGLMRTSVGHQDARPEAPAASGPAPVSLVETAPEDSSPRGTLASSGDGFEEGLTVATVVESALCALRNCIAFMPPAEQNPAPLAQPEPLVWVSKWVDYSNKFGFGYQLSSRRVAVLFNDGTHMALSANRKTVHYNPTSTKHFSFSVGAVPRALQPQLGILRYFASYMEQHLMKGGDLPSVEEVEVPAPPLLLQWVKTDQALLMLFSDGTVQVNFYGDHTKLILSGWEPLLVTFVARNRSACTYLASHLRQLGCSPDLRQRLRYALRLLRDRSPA
T15 sequence (P22612 whole entry): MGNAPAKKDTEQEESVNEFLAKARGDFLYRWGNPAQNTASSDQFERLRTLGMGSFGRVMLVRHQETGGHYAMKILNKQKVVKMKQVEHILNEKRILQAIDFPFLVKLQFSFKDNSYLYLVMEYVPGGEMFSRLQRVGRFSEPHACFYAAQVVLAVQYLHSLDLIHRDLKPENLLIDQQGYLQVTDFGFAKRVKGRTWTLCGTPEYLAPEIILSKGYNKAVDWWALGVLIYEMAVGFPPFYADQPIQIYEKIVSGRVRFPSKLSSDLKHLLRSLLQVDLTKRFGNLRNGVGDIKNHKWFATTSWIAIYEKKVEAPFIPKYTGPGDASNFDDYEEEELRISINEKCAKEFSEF

## Cc1cnc(N[C@H]2CC[C@H](N)CC2)nc1-c1cnc2ccc(-c3ccccc3)cn12 [CDDD11-8]
ZAK/MLTK
  remaining activity at 1 µM: 83.3%
VRK2
  remaining activity at 1 µM: 35.7%
TBK1
  remaining activity at 1 µM: 94.6%
PLK3
  remaining activity at 1 µM: 109%
CDK9/cyclin T1
  remaining activity at 1 µM: 18.5%
PDK1/PDPK1
  remaining activity at 1 µM: 105%
TRKB
  remaining activity at 1 µM: 10.8%
TGFBR2
  remaining activity at 1 µM: 95.6%
PAK2
  remaining activity at 1 µM: 96.7%
NEK7
  remaining activity at 1 µM: 102%
NEK6
  remaining activity at 1 µM: 96.2%
CLK2
  remaining activity at 1 µM: 47%
TAOK3/JIK
  remaining activity at 1 µM: 48.6%
OSR1/OXSR1
  remaining activity at 1 µM: 101%
PKAcg
  remaining activity at 1 µM: 86.7%
DYRK2
  remaining activity at 1 µM: 12.7%
MSK1/RPS6KA5
  remaining activity at 1 µM: 61.6%
MAK
  remaining activity at 1 µM: 67.6%
PAK4
  remaining activity at 1 µM: 99.7%
MAPKAPK3
  remaining activity at 1 µM: 91.8%
PKN3/PRK3
  remaining activity at 1 µM: 81%
YES/YES1
  remaining activity at 1 µM: 70%
ABL2/ARG
  remaining activity at 1 µM: 67.5%
ERK2/MAPK1
  remaining activity at 1 µM: 109%
LKB1
  remaining activity at 1 µM: 102%
CHK2
  remaining activity at 1 µM: 97.2%
c-MER
  remaining activity at 1 µM: 52.3%
FGR
  remaining activity at 1 µM: 73.4%
CDC7/DBF4
  remaining activity at 1 µM: 109%
SGK1
  remaining activity at 1 µM: 95.4%
